Data reported in patent US7501281B2, “Compositions, methods and kits related to thrombin, Notch signaling and stamatogenesis and growth of stem cells” (Maine Medical Center Research Institute, priority 2003, dated 2009).

Experiments:
[1] = test system: FGF1R136K NIH 3T3 cell transfectants; test: Thrombin stimulation and immunoblot analysis of FGF1 release; assay type: cell-based, murine
Procedure: FGF1R136K NIH 3T3 cell transfectants or adenovirally-transduced NIH 3T3 cells were washed with DMEM containing 5 units/ml of heparin (Sigma) and stimulated with either 10 μg/ml α-thrombin (a gift from Dr. J. Fenton) or 5 μM TRAP (Sigma) at 37° C. for different periods of time. Control cells were incubated in the absence of thrombin for the same time period. Conditioned media were collected at each time period, filtered, and concentrated as previously described (Jackson et al., 1992, Proc. Natl. Acad. Sci. U.S.A. 89:10691-10695). The concentrates were resolved by SDS-PAGE and subjected to immunoblot analysis using a rabbit antibody against either FGF1 (Jackson et al., 1992), Syt1 (LaVallee et al.,1998, J. Biol. Chem. 273:22217-22223) or Myc (Oncogene). The heat shock-induced release of FGF1 was performed at 42° C. for 110 minutes as previously described (Jackson et al., 1992). Cell viability was assessed by measuring lactate dehydrogenase activity in the conditioned medium after filtration as disclosed previously elsewhere herein (published as Mandinova et al., 2003, J. Cell Sci. 116:2687-2696), and total cell lysates were obtained and processed for immunoblot analysis as described (Landriscina et al., 2001, J. Biol. Chem. 276:22544-22552).
Stable FGF1R136K NIH 3T3 cell transfectants were pre-incubated with either 100 ng/ml pertussis toxin (PTX) or 10 ng/ml cholera toxin (CT) for 60 minutes at 37° C. in DMEM containing 10% BCS. After pre-incubation, the cells were washed, stimulated with 10 μg/ml of thrombin for different periods of time in the presence of either 100 ng/ml PTX or 10 ng/ml CT, conditioned medium collected, and subjected to immunoblot analysis as described above.
Since FGF1 is known to be susceptible to thrombin cleavage at residue 136 (Erzurum et al., 2003, J. Vasc. Surg. 37:1075-1081), a thrombin-resistant FGF1 mutant (FGF1R136K; described in International Patent Publication No. WO03/052378, which is incorporated by reference in its entirety herein) was used and stable FGF1R136K NIH 3T3 cell transfectants were produced.

[2] = test system: PAR1 null cells adenovirally-transduced with the FGF1R136K mutant; test: Immunoblot analysis of FGF1 release in PAR1 null cells; assay type: cell-based, mouse; settings: 10 μg/ml α-thrombin
[3] = test system: FGF1 transcript in NIH 3T3 and Swiss 3T3 cells; test: Nuclear run-on analysis of FGF1 transcription; assay type: cell-based, murine
Procedure: Approximately either 1×10^7 Swiss or NIH 3T3 cells were harvested and washed using ice-cold 50 mM sodium phosphate buffer, pH 7.0 containing 15 mM NaCl. Cell pellets were lysed in 4 ml of ice-cold 10 mM Tris-HCl, pH 7.5, containing 3 mM CaCl2, 3 mM MgCl2, 10 mM NaCl, and 0.5% NP-40. The nuclear pellet was resuspended in glycerol storage buffer (50 mM Tris-HCl, pH 8.3 containing 40% glycerol, 5 mM MgCl2 and 0.1 mM EDTA), the nuclei were snap frozen, and stored in liquid nitrogen. For run-on transcription, 200 μl aliquots of the frozen nuclei were added to 200 μl of reaction buffer (10 mM Tris-HCl, pH 8.3 containing 5 mM MgCl2, 300 mM KCl, 5 mM DTT, 1 mM each of ATP, CTP, and GTP, 40 units of RNase inhibitor and 100 μCi of [^32P]UTP (800 Ci/mmol; Amersham), and incubated at 30° C. for 30 minutes. The mixture was treated with 100 units of RNase-free DNase I for 30 minutes at 30° C. and then incubated with 400 μl of 20 mM Tris-HCl, pH 7.5, containing 2% SDS, 10 mM EDTA, […] proteinase K for 30 minutes at 42° C. Following phenol/CHCl3 extraction, the labelled transcripts were precipitated with isopropanol and dissolved in 50 μl of 10 mM TES, pH 7.5, containing 10 mM EDTA and 0.2% SDS. Linearized plasmid constructs (0.4 μg/dot) containing either the fgfl or gapdh cDNA were alkali denatured and immobilized onto a Hybond-N^+ membrane (Amersham). Hybridization was performed in 1 ml of ULTRA Hyb (Ambion), with 5×10^6 cpm of radiolabeled RNA and yeast RNA (10 μg/ml) for 18 hours with shaking at 50° C. Membranes were washed twice with washing buffer (2×SSC containing 0.1% SDS) at 50° C. and analyzed using a phosphoimager (Molecular Dynamics).

Substance: Thrombin
- export of FGF2 [1]: unable to induce
- concentration giving maximal response of FGF1R136K release ([1]; 37° C.): 10 µg/mL
- export of S100A13 ([1]; 37° C., cells co-expressing S100A13 and FGF1R136K): presence of S100A13 in the extracellular compartment
- release of the FGF1R136K mutant into the extracellular compartment ([1]; 37° C., 10 μg/ml α-thrombin or 5 μM TRAP): rapid and sustained appearance
- time to maximum levels of FGF-1 release after contact ([1]; FGF-1-NIH 3T3 transfectants): one
- release of the FGF1R136K mutant from cells with elevated Notch1 signaling ([1]; cells adenovirally transduced with caN1): unable to initiate the release
- export of p40 Syt1 ([1]; p40 Syt1 adenovirally transduced): presence of p40 Syt1 in the extracellular compartment
- export of the FGF1R136K mutant [2]: unable to induce the export
- induction of FGF1 transcript ([3]; 10 μg/ml α-thrombin or 5 μM TRAP): able to induce
- time at which FGF1 mRNA was initially detected ([3]; after addition of thrombin): 15 min
- time to plateau of FGF1 mRNA ([3]; after addition of thrombin): ≤ 2 h
